{"source": "paper PMC8143291", "about": "“Cytotoxicity and Microbicidal Activity of Commonly Used Organic Solvents: A Comparative Study and Application to a Standardized Extract from Vaccinium macrocarpon” (Toxics, 2021)", "key": {"[1]": {"system": "CCL-1 (transformed mouse fibroblasts, NCTC clone 929)", "assay": "MTT dye-reduction cytotoxicity assay (ISO 10993-5)", "assay_type": "cell-based", "conditions": "for MTC (maximum tolerated concentration): at least 70% of cells viable", "description": "(§1) The cell lines utilized in this study included the human tumor lines A-375 (malignant melanoma) and A-431 (non-melanoma epidermoid squamous skin carcinoma) as well as the models for non-tumorigenic cells—HaCaT (immortalized human keratinocytes) and CCL-1^TM (transformed mouse fibroblasts, NCTC clone 929). The first three cell lines were obtained from CLS Cell Lines Service (GmbH, Eppelheim, Germany). CCL-1^TM was purchased from the American Type Culture Collection (ATCC, Manassas, VA, USA). Cells were maintained in a controlled environment—sterile cell culture flasks in a CO2 incubator Panasonic MCO-18AC (Panasonic Healthcare co., ltd, Oizumi-Machi, Japan) at 37 °C and a humidified atmosphere containing 5% CO2. CCL-1 was cultured in MEM with 10% heat-inactivated horse serum and 2 mM L-glutamine, and the cell culture medium for the rest of the cell lines was DMEM-HG with 4.5 g/L glucose with the addition of 10% heat-inactivated fetal bovine serum and 4 mM L-glutamine. Pen/strep (concentration of penicillin G sodium 10^5 Units/L and of streptomycin sulfate 100 mg/L) was added to both culture media. The cell lines were maintained as an adherent monolayer in a log phase. The cells were sub-cultivated about 1–3 times per week after the monolayer reached 80–90% confluence. The medium was removed from the flask, and the cell monolayer was washed with 3–5 mL PBS. The cells were incubated with 0.05% EDTA in PBS for 8–10 min, followed by the next step where all cell lines were subjected to enzyme cell detachment. HaCaT and CCL-1 monolayers were detached with 1 mL solution of trypsin/EDTA (0.1%/0.05% for HaCaT and 0.25% (w/v)/0.53 mM for CCL-1) and incubated for 2–5 min at 37 °C (for HaCaT) or at room temperature (for CCL-1 cells), whereas Accutase® was used for A-375 and A-431 lines. The incubation lasted until the separation and dispersion of the cells in the monolayer were observed using light microscopy. In the end, all cell lines were resuspended in 10 mL medium and centrifuged for 3 min at 300× g. The cell pellet was resuspended in fresh medium and sub-cultivated at a seeding density of 1.0 × 10^4 cells/cm^2.\n(§2) The MTT test was performed in order to determine the median inhibitory (IC50) and MTC concentrations of the solvents and PAC according to Annex C, ISO 10993-5 [2, 21]. Briefly, 100 µL of the cell suspension (1 × 10^5 cells/mL) were seeded per well in 96-well plates with a flat bottom. The cells were incubated for 24 h, allowing them to enter the log phase of their growth. On the 24th hour, the cells were treated with the solvents or CystiCran® solutions in concentrations ranging between 0.004% and 2% volume fraction (v/v) and incubated further for 72 h. The incubation periods are following the recommendations of the FDA guide for the use of ISO 10993-1 [1]. At the end of the incubation period, 10 µL of an MTT solution (5 mg/mL) were added to each well, and the plates were kept at 37 °C for 2 hours. Thereafter, the medium was aspirated, and the formed formazan crystals were dissolved in 100 μL/well of 2-propanol supplemented with 5% formic acid. The same solvent was used as a blank. Untreated cells were considered as a negative control. […] The absorption was measured at 540 nm (reference filter at 690 nm) on a microplate reader ELx800 (BioTek Instruments, Inc., Winooski, VT, Winooski, VT, USA).\nThe IC50 values from the MTT assay were evaluated with a non-linear regression analysis (Curve fit, GraphPad Prizm 6.01 software, GraphPad Software Inc., San Diego, CA, USA) using sigmoidal concentration–response curves. The cell viability is presented as a percentage of the untreated control. At least four wells were seeded for every concentration. Three independent assays were performed (n = 3)."}, "[2]": {"system": "A-431 (non-melanoma epidermoid squamous skin carcinoma)", "assay": "MTT dye-reduction cytotoxicity assay (ISO 10993-5)", "assay_type": "cell-based, human", "conditions": "solvent alone, n = 3; for MTC (maximum tolerated concentration): 72 h, at least 70% of cells viable", "description": "as §1\nas §2, with “blank.” for “blank. Untreated cells were considered as a negative control.”\nThe IC50 values from the MTT assay were evaluated with a non-linear regression analysis (Curve fit, GraphPad Prizm 6.01 software, GraphPad Software Inc., San Diego, CA, USA) using sigmoidal concentration–response curves. […]"}, "S. pyogenes SAIMC 10535": {"system": "S. pyogenes SAIMC 10535", "assay": "Dehydrogenase activity (DEHA) MTT test after BMD", "assay_type": "cell-based, Streptococcus pyogenes", "conditions": "24 h exposure; % against untreated control; ± SD; n = 3", "procedure": "(§3) The cell dehydrogenase (DEHA, redox, metabolic) activity of all samples was measured at the end of the BMD assay, based on reducing the MTT dye to formazan by the membrane located bacterial enzyme NADH: ubiquinone reductase (H^+-translocation). The protocol of Wang et al. was applied after minor modifications. Briefly, each sample was incubated for 120 min at 37 °C with MTT at a final concentration of 0.5 mg/mL in the culture medium. The resulting non-soluble violet formazan crystals were dissolved with an equal volume of 2-propanol supplemented with 5% formic acid. The absorbance was measured at 550 nm against a blank solution containing the respective volumes of MHB and MTT.\n(§4) The cell viability is presented as a percentage of the untreated control. At least four wells were seeded for every concentration. Three independent assays were performed (n = 3). […] The respiratory activity of the bacterial cultures was calculated as a percentage against the untreated control."}, "E. faecalis ATCC 29212": {"system": "E. faecalis ATCC 29212", "assay": "Dehydrogenase activity (DEHA) MTT test after BMD", "assay_type": "cell-based, Enterococcus faecalis", "conditions": "24 h exposure; % against untreated control; ± SD; n = 3", "procedure": "as §3, §4"}, "P. aeruginosa ATCC 27853": {"system": "P. aeruginosa ATCC 27853", "assay": "Dehydrogenase activity (DEHA) MTT test after BMD", "assay_type": "cell-based, Pseudomonas aeruginosa", "conditions": "for DEHA (dehydrogenase activity): 24 h exposure, % against untreated control, ± SD, n = 3", "procedure": "as §3, §4"}, "[3]": {"system": "Staphylococcus epidermidis, Salmonella paratyphi A, Vibrio cholerae, Shigella flexneri and Pseudomonas oleovorans", "conditions": "cited from earlier work"}, "S. epidermidis": {"system": "S. epidermidis", "set-up": "method as in doi:10.5580/b43", "conditions": "in the presence of 6% solvent; cited from earlier work"}, "[4]": {"system": "S. Aureus MRSA NBIMCC 8327", "assay": "Dehydrogenase activity (DEHA) MTT test after BMD", "assay_type": "cell-based, Staphylococcus aureus", "conditions": "24 h exposure; % against untreated control; ± SD; n = 3", "procedure": "as §3\nThe IC50 values from the MTT assay were evaluated with a non-linear regression analysis (Curve fit, GraphPad Prizm 6.01 software, GraphPad Software Inc., San Diego, CA, USA) using sigmoidal concentration–response curves. The cell viability is presented as a percentage of the untreated control. […] The maximum tolerated concentration (MTC) for the cell lines was determined from three independent assays according to ISO 10993-5 as the maximum concentration at which at least 70% of the cells were viable (nonlin fit, range, GraphPad Prizm 6.01 software) GraphPad Software Inc., San Diego, CA, USA). […] The respiratory activity of the bacterial cultures was calculated as a percentage against the untreated control."}}, "data": [{"compound": "polyethylene glycol of average molecular weight 400 [PEG-400]", "values": [{"measurement": "IC50 value", "setting": "[1]; 72 h, equals 1.16% v/v", "result": 13, "unit": "mg/mL"}, {"measurement": "MTC (maximum tolerated concentration)", "setting": "[1]; solvent alone, 72 h, n = 3", "result": "0.21 % (v/v)"}, {"measurement": "IC50 (CI 95%)", "setting": "[1]; solvent alone, 72 h incubation, n = 3", "result": "1.16 % (v/v)"}, {"measurement": "MTC (maximum tolerated concentration)", "setting": "[2]", "result": "0.89 % (v/v)"}, {"measurement": "DEHA (dehydrogenase activity)", "setting": "S. pyogenes SAIMC 10535", "result": "23.66 ± 0.02", "unit": "%"}, {"measurement": "DEHA (dehydrogenase activity)", "setting": "E. faecalis ATCC 29212", "result": "65.33 ± 0.06", "unit": "%"}, {"measurement": "DEHA (dehydrogenase activity)", "setting": "P. aeruginosa ATCC 27853", "result": "15.31 ± 0.04", "unit": "%"}, {"measurement": "suppression of the respiratory activity", "setting": "P. aeruginosa ATCC 27853; P. aeruginosa", "result": "~85", "unit": "%"}]}, {"compound": "CCO", "note": "[EtOH, ethanol]", "values": [{"measurement": "MTC (maximum tolerated concentration)", "setting": "[1]; solvent alone, 72 h, n = 3", "result": "1.15 % (v/v)"}, {"measurement": "MTC (maximum tolerated concentration)", "setting": "[2]", "result": "> 2 % (v/v)"}, {"measurement": "IC50 (CI 95%)", "setting": "[2]; 72 h incubation", "result": "> 2 % (v/v)"}, {"measurement": "growth inhibition", "setting": "[3]; at a concentration of 1% v/v", "result": 19, "unit": "%"}, {"measurement": "survival", "setting": "S. epidermidis", "result": 26, "unit": "%"}]}, {"compound": "C[S+](C)[O-]", "note": "[DMSO, dimethyl sulfoxide]", "values": [{"measurement": "DEHA (dehydrogenase activity)", "setting": "[4]", "result": "13.01 ± 0.05", "unit": "%"}, {"measurement": "DEHA (dehydrogenase activity)", "setting": "S. pyogenes SAIMC 10535", "result": "27.27 ± 0.02", "unit": "%"}, {"measurement": "DEHA (dehydrogenase activity)", "setting": "E. faecalis ATCC 29212", "result": "29.86 ± 0.08", "unit": "%"}, {"measurement": "DEHA (dehydrogenase activity)", "setting": "P. aeruginosa ATCC 27853", "result": "9.78 ± 0.01", "unit": "%"}, {"measurement": "MTC", "setting": "[3]", "result": 3, "unit": "% volume fraction"}, {"measurement": "survival", "setting": "S. epidermidis", "result": 15, "unit": "%"}]}]}
